Results taken from patent US9364467B2 (Salix Pharmaceuticals, Ltd, priority 2012, dated 2016).
Values after ≈ are worked out from the molar mass of the structure shown. Read-outs that look alike come from different tables or passages of the source.

System: Enterobacteriaceae spp. strains
Test: In vitro activity (MIC) against Enterobacteriaceae spp. strains

COC1/C=C/O[C@@]2(C)Oc3c(C)c(O)c4c(O)c(c5c(c4c3C2=O)NC2C=C(C)C=CN52)NC(=O)/C(C)=C\C=C\C(C)C(O)C(C)C(O)C(C)C(O)C1C (stereo partly shown) [25-desacetyl rifaximin]
MIC: 128 µg/mL (≈ 172 µM) | MIC50: 128 µg/mL (≈ 172 µM) | MIC90: 256 µg/mL (≈ 343 µM) | MIC (Citrobacter freundii, C. freundii 57): 128 µg/mL (≈ 172 µM) | MIC (Citrobacter freundii, C. freundii 58): 128 µg/mL (≈ 172 µM) | MIC (Citrobacter freundii, C. freundii 65): 128 µg/mL (≈ 172 µM) | MIC (Citrobacter freundii, C. freundii 68): 256 µg/mL (≈ 343 µM) | MIC (Citrobacter freundii, C. freundii 69): 128 µg/mL (≈ 172 µM) | MIC (Citrobacter freundii, C. freundii 1070): 128 µg/mL (≈ 172 µM) | MIC (Citrobacter freundii, C. freundii 1073): 256 µg/mL (≈ 343 µM) | MIC (Citrobacter freundii, C. freundii 1075): 128 µg/mL (≈ 172 µM) | MIC (Enterobacter cloacae, E. cloacae 1): 128 µg/mL (≈ 172 µM) | MIC (Enterobacter cloacae, E. cloacae 3): 128 µg/mL (≈ 172 µM) | MIC (Enterobacter cloacae, E. cloacae 8): 256 µg/mL (≈ 343 µM) | MIC (Enterobacter cloacae, E. cloacae 12): 128 µg/mL (≈ 172 µM) | MIC (Enterobacter cloacae, E. cloacae 13): 128 µg/mL (≈ 172 µM) | MIC (Enterobacter cloacae, E. cloacae 14): 128 µg/mL (≈ 172 µM) | MIC (Enterobacter cloacae, E. cloacae 16): 128 µg/mL (≈ 172 µM) | MIC (Enterobacter cloacae, E. cloacae 20): 128 µg/mL (≈ 172 µM) | MIC (Enterobacter cloacae, E. cloacae 321): 128 µg/mL (≈ 172 µM) | MIC (Enterobacter cloacae, E. cloacae 348): 256 µg/mL (≈ 343 µM) | MIC (Enterobacter cloacae, E. cloacae 349): 128 µg/mL (≈ 172 µM) | MIC (Enterobacter cloacae, E. cloacae 358): 128 µg/mL (≈ 172 µM) | MIC (Enterobacter cloacae, E. cloacae 367): 128 µg/mL (≈ 172 µM) | MIC (Enterobacter cloacae, E. cloacae 369): 256 µg/mL (≈ 343 µM) | Range (MIC) (Enterobacteriaceae spp. strains): 128 to 256 µg/mL | MIC (Escherichia coli, ATCC E. Coli 25922): 128 µg/mL (≈ 172 µM) | MIC (Escherichia coli, E. coli 6): 128 µg/mL (≈ 172 µM) | MIC (Escherichia coli, E. coli 15): 128 µg/mL (≈ 172 µM) | MIC (Escherichia coli, E. coli 34): 128 µg/mL (≈ 172 µM) | MIC (Escherichia coli, E. coli 37): 128 µg/mL (≈ 172 µM) | MIC (Escherichia coli, E. coli 41): 128 µg/mL (≈ 172 µM) | MIC (Escherichia coli, E. coli 43): 128 µg/mL (≈ 172 µM) | MIC (Escherichia coli, E. coli 44): 256 µg/mL (≈ 343 µM) | MIC (Escherichia coli, E. coli 46): 128 µg/mL (≈ 172 µM) | MIC (Escherichia coli, E. coli 47): 128 µg/mL (≈ 172 µM) | MIC (Escherichia coli, E. coli 48): 256 µg/mL (≈ 343 µM) | MIC (Escherichia coli, E. coli 49): 128 µg/mL (≈ 172 µM) | MIC (Escherichia coli, E. coli 56): 128 µg/mL (≈ 172 µM) | MIC (Escherichia coli, E. coli 62): 128 µg/mL (≈ 172 µM) | MIC (Escherichia coli, E. coli 71): 128 µg/mL (≈ 172 µM) | MIC (Escherichia coli, E. coli 90): 128 µg/mL (≈ 172 µM) | MIC (Escherichia coli, E. coli 92): 128 µg/mL (≈ 172 µM) | MIC (Escherichia coli, E. coli 93): 256 µg/mL (≈ 343 µM) | MIC (Escherichia coli, E. coli 95): 128 µg/mL (≈ 172 µM) | MIC (Escherichia coli, E. coli 96): 128 µg/mL (≈ 172 µM) | MIC (Escherichia coli, E. coli 97): 128 µg/mL (≈ 172 µM) | MIC (Escherichia coli, E. coli 100): 128 µg/mL (≈ 172 µM) | MIC (Escherichia coli, E. coli 102): 128 µg/mL (≈ 172 µM) | MIC (Escherichia coli, E. coli 103): 128 µg/mL (≈ 172 µM) | MIC (Escherichia coli, E. coli 109): 128 µg/mL (≈ 172 µM) | MIC (Escherichia coli, E. coli 110): 256 µg/mL (≈ 343 µM) | MIC (Escherichia coli, E. coli 112): 128 µg/mL (≈ 172 µM) | MIC (Escherichia coli, E. coli 113): 128 µg/mL (≈ 172 µM) | MIC (Escherichia coli, E. coli 117): 256 µg/mL (≈ 343 µM) | MIC (Escherichia coli, E. coli 118): 128 µg/mL (≈ 172 µM) | MIC (Escherichia coli, E. coli 120): 128 µg/mL (≈ 172 µM) | MIC (Escherichia coli, E. coli 140): 256 µg/mL (≈ 343 µM) | MIC (Escherichia coli, E. coli 171): 128 µg/mL (≈ 172 µM) | MIC (Escherichia coli, E. coli 342): 128 µg/mL (≈ 172 µM) | MIC (Escherichia coli, E. coli 343): 256 µg/mL (≈ 343 µM) | MIC (Escherichia coli, E. coli 345): 128 µg/mL (≈ 172 µM) | MIC (Escherichia coli, E. coli 349): 128 µg/mL (≈ 172 µM) | MIC (Escherichia coli, E. coli 351): 128 µg/mL (≈ 172 µM) | MIC (Klebsiella aerogenes, E. aerogenes 235): 128 µg/mL (≈ 172 µM) | MIC (Klebsiella aerogenes, E. aerogenes 281): 128 µg/mL (≈ 172 µM) | MIC (Klebsiella aerogenes, E. aerogenes 290): 128 µg/mL (≈ 172 µM)
